Measurements reported in US9345245B2, “Synthetic compounds for vegetative ABA responses” (THE REGENTS OF THE UNIVERSITY OF CALIFORNIA, priority 2012, dated 2016).

What was measured:
PYR/PYL receptors = test: Receptor-mediated PP2C inhibition assay, all ABA receptors tested; assay type: biochemical, Arabidopsis; details: 10 μM; in the presence of all ABA receptors tested
Procedure: HAB1 and PYL proteins were expressed and purified as described previously (Park S Y, et al. (2009) Abscisic Acid Inhibits Type 2C Protein Phosphatases via the PYR/PYL Family of START Proteins. Science 324(5930):1068-1071), with minor modifications. To obtain GST-HAB1, -ABI1 and -ABI2 fusion proteins, the HAB1 cDNA was cloned into pGex-2T whereas ABI1 and ABI2 cDNAs were cloned into the vector pGex-4T-1. Expression was conducted in BL21[DE3]pLysS host cells. Transformed cells were pre-cultured overnight, transferred to LB medium and cultured at 30° C. to culture A600 of 0.5. The culture was then cooled on ice and MnCl2 added to 4 mM and IPTG added to 0.3 mM. After 16 hours incubation at 15° C., cells were harvested and recombinant proteins were purified on glutathione agarose as described previously (Park S Y, et al. (2009). To obtain 6×His-PYL receptor fusion proteins, receptor cDNAs for all 13 ABA receptors were cloned into the vector pET28 and expressed and purified as described previously (Mosquna A, et al. (2011) Potent and selective activation of abscisic acid receptors in vivo by mutational stabilization of their agonist-bound conformation. PNAS 108(51):20838-20843); this yielded soluble and functional protein (assessed using receptor-mediated PP2C inhibition assays) for all receptors except PYL7, PYL11 and PYL12. […]

ABA-responsive genes = test: Quantitative RT-PCR of ABA-responsive genes in Arabidopsis; assay type: in vivo
Procedure: FIG. 9. LC66C6 induces numerous ABA-responsive genes. […] Ten-day old seedlings were treated with carrier solvent (DMSO) or either 25 μM ABA, pyrabactin or LC66C6 for 8 hours. Total RNA was then prepared labeled and hybridized to ATH1 microarrays. Data plotted are log 2 transformed average expression values for ˜13K probes that were detectable across all experiments. Data shown are averages determined from triplicate biological replicates. (C) and (D) show the expression of a reporter gene in different plant tissues after treatment with vehicle (DMSO), pyrabactin, LC66C6, or (+)-ABA.
Total RNA was isolated using Plant RNA purification reagent (Invitrogen, USA) according to the manufacturer's instructions. cDNA was synthesized from 1 μg of total RNA using the QantiTec reverse transcription kit (Qiagen, USA). Real-time PCR using Maxima® SYBR Green/Fluorescein qPCR Master Mix (Fermentas) was performed with the iQ5 real-time PCR detection system (Bio-Rad, Hercules, Calif.). The relative amounts of target mRNAs were determined using the relative standard curve method and were normalized by relative amount of internal control mRNA. Biological triplicate experiments were performed.

[1] = test system: CYP707A ABA-hydroxylating enzymes; test: Growth and germination in CYP707A overexpressing and cyp707a double mutant plants; assay type: in vivo, Arabidopsis; details: 40 μM
Excerpt: FIG. 12. LC66C6 sensitivity is not influenced by the CYP707A ABA-hydroxylating enzymes.

Arabidopsis seeds = test: Arabidopsis seed germination inhibition; assay type: in vivo; details: pyr1/pyl1/pyl2/pyl4 quadruple mutant; 5 μM
Procedure: FIG. 5. Novel ABA agonists inhibit germination of Arabidopsis seeds more strongly than pyrabactin. (A) and (B) Comparison of seed germination inhibition by ABA agonists. (C) and (D) the effects of ABA and LC66C6 (also called quinabactin) on Arabidopsis ABA signaling- and biosynthesis-deficient mutants on germination (C) and seedling establishment (D). Seeds were sown on ½×MS agar plate containing chemicals, and were stored at 4° C. for 4 days, then transferred at 22±2° C. Photographs (A and C) and germination (B) or green cotyledon (D) scores were assessed after a 4-day incubation under continuous illumination. […] For Arabidopsis germination and hypocotyl growth inhibition analysis, seeds after-ripened about 4 weeks were surface-sterilized with a solution containing 5% NaClO and 0.05% Tween-20 for 10 minutes, and rinsed with water four times. Sterilized seeds were suspended with 0.1% agar and sowed on the 0.8% solidified agar medium containing ½ Murashige and Skoog (MS) salts (Sigma-Aldrich) in the presence of chemicals and were stored at 4° C. for 4 days, then transferred at 22° C. under the dark or light. Germination was determined after a 4-day incubation, whereas hypocotyl growth was photographed after 6-day incubation.

Chlamydomonas = test: Colony growth of Chlamydomonas with and without salinity and osmotic stress; assay type: in vivo; details: with and without salinity and osmotic stress
Procedure: FIG. 17. The effect of ABA and its agonists in Physcomitrella patens and Chlamydomonas. Protonemal growth images (A) and quantitative analysis (B) of the effects of ABA and agonists on Phsycomitrella patens. Protonema were grown on 200 μM of specific test chemical for 10 days. […] Pyrabactin bleached protonema. (C) The expression of ABA-responsive genes of Physcomitrella patens. Protonema were treated with 200 μM chemical solutions for 3 h. (D) Colony growth of Chlamydomonas on the chemical with salinity stress and osmotic stress. There was no effect of ABA and LC66C6 on the Chlamydomonas growth with and without stresses.

CC1=CC(=O)CC(C)(C)C1(O)/C=C/C(C)=C\C(=O)O (single isomer, unassigned; (+)) [(+)-ABA, Abscisic acid]
PPC2 enzyme activity of HBA1, ABI1, and ABI2 inhibited (PYR/PYL receptors): > 90% | induction of MAPKKK18, RD29A, and RD29B mRNAs (ABA-responsive genes; Col and Ler ecotypes and pyr1, pyl1, ply2, pyl3 and pyl4 single mutants): induced | expression of ABF3, GBF3, NCED3, and RD29A (ABA-responsive genes; Col wild-type plants): induced expression of ABF3, GBF3, NCED3, and RD29A in a dose dependent manner | expression of ABF3, GBF3, NCED3, and RD29A (ABA-responsive genes; abi1-1 and PYR/PYL quadruple mutant plants): induction levels were impaired | inhibition of plant growth and germination in plants that overexpress CYP707A ([1]; CYP707AOX vs wild-type): reduced | inhibition of plant growth and germination in cyp707a double mutant ([1]; cyp707a double mutant vs wild-type): enhanced | inhibition of germination in quadruple mutant (Arabidopsis seeds): inhibit germination in the quadruple mutant | effect on growth of Chlamydomonas (Chlamydomonas): no effect
